Results as given in patent US20250144067A1, “PERSONALIZED STARVATION THERAPY FOR CANCER” (Faeth Therapeutics, Inc., priority 2021, published 2025).
Where a name gives a salt, the structure may show the parent alone.

How the values were obtained:
[1] = tested on: NCI-H292 lung cancer cells; assay: FDA drug screening, complete media vs cholesterol-free media without statin (TABLE 1); type: cell-based, human
[2] = tested on: NCI-H292 lung cancer cells; assay: FDA drug screening, complete media vs cholesterol-free media with simvastatin (TABLE 2); type: cell-based, human; conditions: for Cholesterol-free media + simvastatin (0.04 μM) / Complete Media: NCI-H292 cells; for Difference: >0 enhanced anti-cancer activity, about 0 neutral, <0 antagonist
[3] = NCI-H292 cells, cholesterol-free media without statin
[4] = complete vs cholesterol-free media; greater than 0 enhanced anti-cancer activity, about 0 neutral, below 0 antagonists
[5] = FDA drug library screen, cholesterol-free media with simvastatin 0.04 μM
[6] = FDA drug library screen, complete media
[7] = complete media minus cholesterol-free media + simvastatin
[8] = cholesterol-free media with simvastatin 0.04 μM, cell growth value in FDA drug screen
[9] = complete media, cell growth value in FDA drug screen
[10] = Complete minus Cholesterol-free; >0 enhanced anti-cancer activity, about 0 neutral, <0 antagonist
[11] = NCI-H292 cells, cholesterol-free media without statin, FDA drug library screen
[12] = NCI-H292 cells, complete media, FDA drug library screen
[13] = drug in cholesterol-free media with simvastatin 0.04 μM
[14] = complete media vs cholesterol-free media + simvastatin (0.04 μM)
[15] = Complete minus Cholesterol-free; greater than 0 enhanced anti-cancer activity, about 0 neutral, below 0 antagonist
[16] = NCI-H292 cells, FDA drug library screen, cholesterol-free media without statin
[17] = NCI-H292 cells, FDA drug library screen, complete media

Compound | Cholesterol-free [1, 3] | Complete ([1]; NCI-H292 cells, complete media) | Difference [1, 4] | Cholesterol-free media + simvastatin (0.04 μM) [2, 5] | Complete Media [2, 6] | Difference [2, 7] | Cholesterol-free media + simvastatin (0.04 μM) [2, 8] | Complete Media [2, 9] | Difference [1, 10] | Difference [2, 14] | also measured
Cn1c([N+](=O)[O-])cnc1COC(N)=O [Ronidazole] | 1.54 | 1.069 | −0.47 | 0.9748 | 1.335 | 0.36 |  |  |  |  | 
CCCN(CCC)CCc1cccc2c1CC(=O)N2 [Ropinirole (hydrochloride)] | 1.101 | 0.7874 | −0.31 | 0.879 | 1.185 | 0.31 |  |  |  |  | 
CCCN1CCCC[C@H]1C(=O)Nc1c(C)cccc1C [Ropivacaine (hydrochloride monohydrate)] | 0.9717 | 0.6061 | −0.37 |  |  | 0.05 | 1.378 | 1.433 |  |  | 
CCCN1CCCC[C@H]1C(=O)Nc1c(C)cccc1C [Ropivacaine (hydrochloride)] |  |  |  |  |  |  |  |  | 0.07 | −0.20 | Cholesterol-free [1, 11]: 1.2; Complete [1, 12]: 1.265; Cholesterol-free media + simvastatin (0.04 μM) [2, 13]: 1.189; Complete Media ([2]; drug in complete media): 0.9899
CCCN1CCCC[C@H]1C(=O)Nc1c(C)cccc1C.CS(=O)(=O)O [Ropivacaine (mesylate)] | 1.155 | 0.7954 | −0.36 | 0.9302 |  | 0.22 |  |  |  |  | 
CCCN1CCCC[C@H]1C(=O)Nc1c(C)cccc1C [Ropivacaine] | 1.098 | 0.8949 |  |  |  |  |  |  | −0.20 | −0.18 | Cholesterol-free media + simvastatin (0.04 μM) [2, 13]: 0.9386; Complete Media ([2]; drug in complete media): 0.7628
CN(CCOc1ccc(CC2SC(=O)NC2=O)cc1)c1ccccn1.O=C(O)/C=C\C(=O)O (centres unmarked) [Rosiglitazone (maleate)] |  |  |  |  |  | 0.05 | 0.848 | 0.8943 |  |  | Cholesterol-free [1, 11]: 1.107; Complete [1, 12]: 1.422; Difference ([1]; complete vs cholesterol-free media; >0 enhanced anti-cancer activity, about 0 neutral, <0 antagonist): 0.32
CN(CCOc1ccc(CC2SC(=O)NC2=O)cc1)c1ccccn1 (centres unmarked) [Rosiglitazone] | 1.222 | 1.017 |  | 1.707 | 1.955 | 0.25 |  |  | −0.21 |  | 
CC(C)c1nc(N(C)S(C)(=O)=O)nc(-c2ccc(F)cc2)c1/C=C/[C@@H](O)C[C@@H](O)CC(=O)O [Rosuvastatin (Calcium)] | 1.156 | 0.9201 |  |  |  | 0.08 | 0.9188 | 1.001 | −0.24 |  | 
CCCN(CCc1cccs1)[C@H]1CCc2c(O)cccc2C1 [Rotigotine (Hydrochloride)] |  |  |  | 0.8026 | 0.6752 |  |  |  |  | −0.13 | Difference [1, 15]: −0.08; Cholesterol-free [1, 16]: 0.8788; Complete [1, 17]: 0.7943
CCCN(CCc1cccs1)[C@H]1CCc2c(O)cccc2C1 [Rotigotine] |  |  |  |  |  |  |  |  | 0.07 |  | Cholesterol-free [1, 11]: 0.9004; Complete [1, 12]: 0.9685; Cholesterol-free media + simvastatin (0.04 μM) ([2]; cholesterol-free media with simvastatin 0.04 μM, FDA drug library screen (TABLE 2)): 1.128; Complete Media ([2]; complete media, FDA drug library screen (TABLE 2)): 1.07; Difference ([2]; complete media minus cholesterol-free media + simvastatin (0.04 μM)): −0.06
COc1cc2c(cc1OC)[C@@H]1Cc3ccc(OC)c(OC)c3CN1CC2 [Rotundine] | 1.07 | 0.8588 |  |  |  |  |  |  | −0.21 | −0.27 | Cholesterol-free media + simvastatin (0.04 μM) ([2]; FDA library drug in cholesterol-free media with simvastatin 0.04 μM): 1.094; Complete Media ([2]; FDA library drug in complete media): 0.8277
Cc1nc(C(=O)NCC(=O)O)c(O)c2ccc(Oc3ccccc3)cc12 [Roxadustat] |  |  |  |  |  | 0.13 | 1.201 | 1.327 |  |  | Difference [1, 15]: −0.11; Cholesterol-free [1, 16]: 1.074; Complete [1, 17]: 0.9662
